# Assay results: ChEMBL document CHEMBL4651402, “Screening of ~5500 FDA-approved drugs and clinical candidates for anti-SARS-CoV-2 activity” (2021)
# What was measured:
# SARS-CoV-2 [1] = experiment: microbe, parasite or virus in culture; details: Severe acute respiratory syndrome coronavirus 2, Vero C1008, 48 h
# SARS-CoV-2 [2] = experiment: microbe, parasite or virus in culture; assay type: functional, organism-based, Chlorocebus sabaeus, Vero C1008; details: Severe acute respiratory syndrome coronavirus 2, Vero C1008, 48 h
# in vitro = details: chlorocebus sabaeus
# [3] = Vero E6 (Vero C1008) cells, CC50
# [4] = Vero E6 (Vero C1008) cells, pCC50
Compound,IC50 (SARS-CoV-2 [1]) [µM],IC50 (SARS-CoV-2 [1]; read-out: pIC50 (converted)) [µM],IC50 (SARS-CoV-2 [2]; read-out: IC50) [µM],IC50 (SARS-CoV-2 [2]; read-out: pIC50 (converted)) [µM],CC50 at 48 h (in vitro; [3]) [µM],CC50 at 48 h (in vitro; [4]) [µM],"CC50 at 48 h (in vitro; vero c1008, CC50) [µM]","CC50 at 48 h (in vitro; vero c1008, pCC50) [µM]"
N#Cc1ccc2c(c1)N(CCCN1CCC(O)CC1)c1ccccc1S2 [PERICIAZINE],> 20,> 20,> 100,> 100,12.7,12.6,–,–
CNCCC=C1c2ccccc2CCc2ccccc21 [NORTRIPTYLINE],15.9,15.8,> 100,> 100,–,–,24,24
CN(C)CCON=C1c2ccccc2CCc2ccccc21 [NOXIPTILINE],14.1,14.1,> 100,> 100,77.6,77.6,–,–
CCCCN(CCCC)CCCOc1ccc(C(=O)c2c(CC)cc3ccccn23)cc1 [BUTOPROZINE],> 100,> 100,> 100,> 100,6.61,6.61,–,–
CC[C@H]1CN2CC[C@H]1C[C@H]2[C@H](O)c1ccnc2ccc(OC)cc12 [HYDROQUININE],15.5,15.5,> 25.1,> 25.1,> 25.1,> 25.1,–,–
CCN(CC)CCNC(=O)c1ccc(NS(C)(=O)=O)cc1 [SEMATILIDE],3.89,3.89,> 100,> 100,> 100,> 100,–,–
CN(C)CCOC(C)(c1ccccc1)c1ccc(Cl)cc1 (stereo not given) [CHLORPHENOXAMINE],19.5,19.5,~14.5,~14.5,28.2,28.2,–,–
C=C1CC[C@@H]2[C@](C)(CO)[C@H](O)CC[C@@]2(C)[C@@H]1C/C=C1/C(=O)OC[C@H]1O [ANDROGRAPHOLIDE],> 100,> 100,> 100,> 100,~21.6,~21.4,–,–
CC(C)(Cc1c[nH]c2ccccc12)NCC(O)COc1ccccc1C#N (stereo not given) [BUCINDOLOL],17,17,> 100,> 100,30.9,30.9,–,–
CCCCOc1cc(C(=O)NCCN(CC)CC)c2ccccc2n1 [DIBUCAINE],29.1,28.8,~29.5,~29.5,~39.6,~39.8,–,–
OC(Cn1cncn1)(Cn1cnc(/C=C/c2ccc(OCC(F)(F)C(F)F)cc2)n1)c1ccc(F)cc1F (stereo not given),> 100,> 100,> 100,> 100,25.7,25.7,–,–
COc1ccc2nc3c(c(N)c2c1)CCCC3,~11.5,~11.5,> 25.1,> 25.1,47.9,47.9,–,–
c1ccc(C(O[C@H]2CCCN(CCc3ccc4c(c3)OCO4)C2)c2ccccc2)cc1,> 100,> 100,87.1,87.1,> 100,> 100,–,–
Nc1nc(Nc2ccc3c(c2)CC[C@@H](N2CCCC2)CC3)nn1-c1cc2c(nn1)-c1ccccc1CCC2 [BEMCENTINIB],1.78,1.78,> 50.1,> 50.1,1.55,1.55,–,–
Cc1ccc(CCCO)c(NCc2ccc3nc(NCCCN4CCOCC4)n(Cc4nc(C)ccc4O)c3c2)c1,> 20,> 20,> 20,> 20,9.33,9.33,–,–
COc1ccccc1OCCNCC(O)COc1cccc2[nH]c3ccccc3c12 (stereo not given) [CARVEDILOL],15.5,15.5,10,10,17,17,–,–
CC(C)(C)NC(=O)[C@@H]1C[C@@H]2CCCC[C@@H]2CN1C[C@@H](O)[C@H](Cc1ccccc1)NC(=O)[C@H](CC(N)=O)NC(=O)c1ccc2ccccc2n1,> 100,> 100,> 100,> 100,18.2,18.2,–,–
Cc1ccccc1CN1CCN(CCOC(c2ccccc2)c2ccccc2Cl)CC1 (stereo not given) [CHLORBENZOXAMINE],> 100,> 100,> 25.1,> 25.1,15.3,15.1,–,–
Oc1cc2c(cc1O)[C@H]1c3ccccc3CN[C@@H]1CC2 [DIHYDREXIDINE],7.94,7.94,> 100,> 100,18.6,18.6,–,–
CNCCCC1c2ccccc2C=Cc2ccccc21 [PROTRIPTYLINE],> 100,> 100,> 100,> 100,–,–,26.3,26.3
